Two molecules from article PMC9221192, “The Prophylactic and Multimodal Activity of Two Isatin Thiosemicarbazones against Alzheimer’s Disease In Vitro” (Brain Sciences, 2022) can be followed below.

The assay deals with T1, soybean lipoxygenase (LOX) (Glycine max, UniProt P08170).
T1 construct: gene LOX1.1
T1 sequence (P08170 1-839): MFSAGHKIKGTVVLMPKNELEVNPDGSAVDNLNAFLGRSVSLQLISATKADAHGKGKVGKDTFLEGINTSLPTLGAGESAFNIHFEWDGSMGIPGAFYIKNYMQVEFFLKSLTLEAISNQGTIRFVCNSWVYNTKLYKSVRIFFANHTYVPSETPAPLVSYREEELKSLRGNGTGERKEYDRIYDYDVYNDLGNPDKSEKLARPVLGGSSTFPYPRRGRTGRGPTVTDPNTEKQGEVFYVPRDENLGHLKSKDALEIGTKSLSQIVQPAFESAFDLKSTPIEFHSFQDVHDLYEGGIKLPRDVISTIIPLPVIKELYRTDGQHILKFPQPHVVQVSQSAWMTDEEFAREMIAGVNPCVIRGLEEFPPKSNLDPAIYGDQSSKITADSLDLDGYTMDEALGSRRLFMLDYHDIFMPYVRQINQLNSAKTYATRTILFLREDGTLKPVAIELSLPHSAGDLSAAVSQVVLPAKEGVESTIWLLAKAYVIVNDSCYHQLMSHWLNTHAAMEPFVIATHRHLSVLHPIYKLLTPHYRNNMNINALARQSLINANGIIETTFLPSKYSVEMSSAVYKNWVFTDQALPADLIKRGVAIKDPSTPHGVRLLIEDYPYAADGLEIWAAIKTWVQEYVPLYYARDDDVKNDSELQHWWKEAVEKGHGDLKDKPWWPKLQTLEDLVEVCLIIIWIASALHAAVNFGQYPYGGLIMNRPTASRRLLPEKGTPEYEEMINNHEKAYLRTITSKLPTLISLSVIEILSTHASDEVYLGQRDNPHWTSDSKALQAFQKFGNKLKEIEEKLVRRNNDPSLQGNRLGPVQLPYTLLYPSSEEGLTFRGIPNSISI
Briefly: UV assay at […] nm, sodium linoleate oxidation, pH […]. Format: biochemical.

Molecules are shown by their SMILES.

As usually defined, the IC50 is the midpoint of a concentration-inhibition curve. A lower IC50 goes with inhibition by little substance. Consider `COc1ccc2c(c1)/C(=N/NC(=S)Nc1ccccc1)C(=O)N2` [M], for which the half-inhibitory concentration (IC50) amounted to 60.5 µM.

Regarding `O=C1C(=NNC(=S)Nc2ccccc2)c2cc(F)ccc2N1CN1CCCCC1` [FMp], half-maximal inhibition (IC50) was put at 54 µM.
